From ChEMBL document CHEMBL5096239, “Two Binding Sites of SARS-CoV-2 Macrodomain 3 Probed by Oxaprozin and Meclomen” (J Med Chem, 2022)

Legend:
[1] = Binding affinity to 15N-labelled His6-tagged SARS-CoV-2 Mac3 (551 to 675 residues) V635I mutant expressed in Escherichia coli Rosetta by NMR HSQC spectral analysis; design: species or system Severe acute respiratory syndrome coronavirus 2
[2] = Binding affinity to 15N-labelled MTSL-tagged SARS-CoV-2 Mac3 (551 to 675 residues) T583C mutant expressed in Escherichia coli Rosetta by transferred PRE analysis; design: species or system Severe acute respiratory syndrome coronavirus 2

Cc1ccc(Cl)c(Nc2ccccc2C(=O)O)c1Cl [MECLOFENAMIC ACID]
Kd [1]: 300 µM | Kd [2]: 700 µM
